What all share (assay type): biochemical
For one assay, the system named is ALuc34. Put plainly: Relative luminescence intensity of lysates of COS-7 cells expressing ALuc34 after adding coelenterazine derivatives. The settings on record: for Ratios (A34/RLuc8.6-535): ALuc34 intensity over RLuc8.6-535 intensity, same substrate; for Luminescence intensity ALuc34 ave: COS-7 lysate 10 μL, LAS-4000; for substrate selectivity (RLuc8.6-535:ALuc, 1:x): luminescence intensity of ALuc compared with RLuc8.6-535, same substrate. As for the experimental part:
(§1) First, African monkey kidney-derived culture cells COS-7 were cultured in a 96-well plate until the culture area covered 90% of the lower area of the plate. At this stage, the plate wells growing cells were divided into two groups, and pcDNA3.1(+) vector, which expresses ALuc34 or RLuc8.6-535, was introduced into each group by the lipofection technique (TransIT-LT1), followed by further incubation for 16 hours. After incubation, the cells were lysed and an aliquot of the lysates (10 μL) is placed in a fresh 96-well plate. Different luminescent substrates were simultaneously added thereto using a multichannel pipette, and the relative luminescence intensity was immediately measured with a luminescence imaging analyzer LAS-4000 (FujiFilm). […] As used herein, “substrate selectivity” refers to a luminescence intensity of ALuc compared with the luminescence intensity of RLuc8.6-535 in the presence of the same luminescent substrate.

In assay [1] the target is T1, RLuc8.6-535 (Renilla reniformis, UniProt P27652, A123S/A143M/A55T/C124A/D162E/I163L/K136R/M185L/M253L/S130A/S287L).
T1 construct: expressed in transfected cells; host or cells: COS-7 (African monkey kidney), lysate
T1 sequence (P27652 whole entry A55T/A123S/C124A/S130A/K136R/A143M/D162E/I163L/M185L/M253L/S287L): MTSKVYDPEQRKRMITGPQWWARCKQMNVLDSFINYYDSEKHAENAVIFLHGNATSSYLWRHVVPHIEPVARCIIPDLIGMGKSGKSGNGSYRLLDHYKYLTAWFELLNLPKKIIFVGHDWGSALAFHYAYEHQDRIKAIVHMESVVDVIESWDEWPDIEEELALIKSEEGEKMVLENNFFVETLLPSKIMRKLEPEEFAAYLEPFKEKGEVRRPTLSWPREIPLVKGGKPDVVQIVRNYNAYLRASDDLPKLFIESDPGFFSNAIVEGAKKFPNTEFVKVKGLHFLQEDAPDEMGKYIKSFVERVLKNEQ
The settings on record: COS-7 lysate 10 μL, LAS-4000. As for the experimental part:
as §1

The target of assay [2] is T1, RLuc8.6-535. The following applies: 5 μL lysate + 30 μL substrate, AB-1850.
Another assay has as its system ALuc. Put plainly: Dual assay with or without 0.1% SDS, ALuc luminescence. The settings on record: sulfate. On the procedure: (§2) It is advantageous for simultaneous measurement of multiple biomarkers if a dual assay can be performed in the presence of two or more bioluminescent enzymes. With this point in mind, luminescence was measured in the presence of two bioluminescent enzymes (ALuc and CLuc) (FIG. 5). First, COS-7 cells were cultured in a 96-well plate, and a plasmid that expresses ALuc or CLuc was transfected into each cellular compartment by lipofection. Under the conditions, CLuc is secreted, but ALuc largely remains inside the cells because of the endoplasmic reticulum localization signal (KDEL) attached to the terminus. 16 hours later, 10 μL of the CLuc culture solution was mixed with 2 μL of ALuc lysate. Then, the luminescence intensity was compared between the cases where 0.1% SDS was added or not, After addition of the luminescent substrates specific to ALuc and CLuc, respectively.

In assay [3] the test system is Cypridina luciferase (CLuc). In words: Dual assay with or without 0.1% SDS, CLuc luminescence. As for the experimental part:
as §2

“Also recorded” adds a separate entry of the source.

Take `O=c1c(Cc2ccc3ccccc3c2)nc2c(Cc3ccccc3)[nH]c(-c3ccc(O)cc3)cn1-2`: in the assay on ALuc34, the “Ratios (A34/RLuc8.6-535)” value amounted to 81 and the “Luminescence intensity ALuc34 ave” value is reported as 172323 RLU/μg/sec/mm2. For the same molecule, the “Luminescence intensity RLuc8.6-535 ave” value at RLuc8.6-535 [1] is listed as 2132 RLU/μg/sec/mm2.
For the molecule `O=c1c(Cc2ccccc2)nc2c(Cc3ccccc3)[nH]c(-c3ccccc3)cn1-2` [CTZ 400, coelenterazine 400A], in the assay on ALuc34, the “luminescence intensity with ALuc (in words)” value is “luminescence intensity was almost not observed at all”, the “Ratios (A34/RLuc8.6-535)” value was 3610 and the “Luminescence intensity ALuc34 ave” value amounted to 11624 RLU/μg/sec/mm2. Moreover, at RLuc8.6-535 [1], the “Luminescence intensity RLuc8.6-535 ave” value was determined as 3 RLU/μg/sec/mm2.
Take `O=c1c(Cc2ccc(F)cc2)nc2c(Cc3ccccc3)[nH]c(-c3ccc(O)cc3)cn1-2` [CTZ f, coelenterazine f]: the “Spectrum peak RLuc8.6-535” value at RLuc8.6-535 [2] was 547 nm. Besides, in the assay with ALuc34, the “Ratios (A34/RLuc8.6-535)” value worked out at 134; the “Luminescence intensity ALuc34 ave” value is recorded as 956530 RLU/μg/sec/mm2; the “substrate selectivity (RLuc8.6-535:ALuc, 1:x)” value is on record as 134. Also, the “Luminescence intensity RLuc8.6-535 ave” value on RLuc8.6-535 [1] was determined as 7151 RLU/μg/sec/mm2.
Turning to `Oc1ccc(-c2cn3c(O)c(Cc4ccc(F)cc4)nc3c(CC3CCCC3)n2)cc1` [CTZ fcp, coelenterazine fcp, reference compound], in the assay on ALuc34, the “Ratios (A34/RLuc8.6-535)” value came out at 3 and the “Luminescence intensity ALuc34 ave” value turned out to be 3712 RLU/μg/sec/mm2. Moreover, the “Luminescence intensity RLuc8.6-535 ave” value at RLuc8.6-535 [1] is listed as 1217 RLU/μg/sec/mm2.
For `O=c1c(Cc2ccccc2)nc2c(Cc3ccccc3)[nH]c(-c3ccc(O)cc3)cn1-2` [CTZ h, coelenterazine h], on RLuc8.6-535 [2], the “Spectrum peak RLuc8.6-535” value worked out at 545 nm. Further, in the assay on ALuc34, the “luminescence intensity with ALuc (in words)” value was “strong luminescence”, the “Ratios (A34/RLuc8.6-535)” value is on record as 91 and the “Luminescence intensity ALuc34 ave” value amounted to 1168658 RLU/μg/sec/mm2. Besides, the “Luminescence intensity RLuc8.6-535 ave” value at RLuc8.6-535 [1] stood at 12812 RLU/μg/sec/mm2.
`Oc1ccc(-c2cn3c(O)c(Cc4ccccc4)nc3c(CC3CCCC3)n2)cc1` [CTZ hcp, coelenterazine hcp, reference compound]: in the assay with ALuc34, the “Ratios (A34/RLuc8.6-535)” value stood at 3 and the “Luminescence intensity ALuc34 ave” value is 5191 RLU/μg/sec/mm2. Further, the “Luminescence intensity RLuc8.6-535 ave” value at RLuc8.6-535 [1] was 2058 RLU/μg/sec/mm2.
Turning to `O=c1c(Cc2ccc(I)cc2)nc2c(Cc3ccccc3)[nH]c(-c3ccc(O)cc3)cn1-2` [CTZ i, coelenterazine i], in the assay on ALuc34, the “luminescence intensity with ALuc (in words)” value is “high luminescence intensity”; the “Ratios (A34/RLuc8.6-535)” value is recorded as 9398; the “Luminescence intensity ALuc34 ave” value was determined as 913540 RLU/μg/sec/mm2; the “substrate selectivity (RLuc8.6-535:ALuc, 1:x)” value came out at 9400. For the same molecule, the luminescent substrate selectivity result in the assay with ALuc34 (ALuc versus RLuc8.6-535) is “about 10,000 fold”. Besides, the “Luminescence intensity RLuc8.6-535 ave” value at RLuc8.6-535 [1] is on record as 97 RLU/μg/sec/mm2.
For the molecule `Oc1ccc(Cc2nc3c(CC4CCCC4)nc(-c4ccc(O)cc4)cn3c2O)cc1` [CTZ op, coelenterazine cp, reference compound], in the assay with ALuc34, the “Ratios (A34/RLuc8.6-535)” value is 8 and the “Luminescence intensity ALuc34 ave” value is 40564 RLU/μg/sec/mm2. Besides, on RLuc8.6-535 [1], the “Luminescence intensity RLuc8.6-535 ave” value is given as 5354 RLU/μg/sec/mm2.
Consider `CCCCCCCCCCCCOS(=O)(=O)[O-].[Na+]` [SDS, sodium dodecyl sulfate], for which the “effect on ALuc luminescence activity” value in the assay on ALuc is recorded as “substantially deactivated; also recorded: mostly quenched”. Besides, in assay [3], the “effect on CLuc luminescence activity” value is “somewhat maintained luminescence activity”.
Take “coelenterazine ip [CTZ ip, reference compound]”: the “Spectrum peak RLuc8.6-535” value on RLuc8.6-535 [2] was determined as 535 nm. For the same molecule, in the assay with ALuc34, the “Ratios (A34/RLuc8.6-535)” value is given as 4 and the “Luminescence intensity ALuc34 ave” value is recorded as 8379 RLU/μg/sec/mm2. Further, the “Luminescence intensity RLuc8.6-535 ave” value on RLuc8.6-535 [1] worked out at 2200 RLU/μg/sec/mm2.

The values are drawn from US10214766B2, “Luminescent substrate for use in artificial bioluminescent enzyme” (NATIONAL INSTITUTE OF ADVANCED INDUSTRIAL SCIENCE AND …, priority 2013, dated 2019).
